The record followed here is patent publication US7008927B2, “Pralmorelin-containing nasal drop preparations” (Kaken Pharmaceutical Co., Ltd., priority 2000, dated 2006).

Data set [1] in a line: Saturated solubility in physiological saline. Format: physicochemical. To be noted: 25° C., as dihydrochloride. As to the method:
To be more specific, pralmorelin has low saturated solubility in physiological saline (0.15 w/v % at 25° C. when it is dihydrochloride) and at higher concentrations, pralmorelin becomes insoluble with the lapse of time and a problem occurs in terms of storage stability, thus making it difficult to formulate pralmorelin pharmaceutically using physiological saline. Even at concentrations lower than its saturated solubility, pralmorelin has low in vivo absorption and needs frequent administration.

Data set [2] can be described thus: In vivo absorption after intranasal administration to rats (plasma concentration, two-antibody competition method). The following applies: Crj:CD (SD), rat; for Tmax: male rats; for AUC / Cmax / bioavailability: male. How it is done: With an isotonic solution (in distilled water) of 5 w/v % D-mannitol or physiological saline used as a solvent, a solution of 0.1 w/v % pralmorelin dihydrochloride was prepared and administered to male rats (7-week old, Crj:CD (SD) strain, N=3) in an amount of 50 μg/kg.
With the rats fixed supine under an unanesthetized condition, the pralmorelin solution was administered into one nostril of each rat in an amount of 50 μg/kg with a micropipette. The rats were not anesthetized for two reasons: actual drug administration is effected without anesthesia; the effects anesthetization would have on drug absorption have not been elucidated.
The concentration of an unchanged substance in plasma was measured in accordance with the two-antibody competition method of Kitagawa et al. summarized below [J. Assoc. Off. Anal. Chem., Vol. 68, No. 4, pp. 661–664 (1985) and J. Immunological Methods, 72, pp. 109–118 (1984)].
Anti-rabbit IgG goat IgG (Jackson Immuno Research) as the second antibody was adsorbed on an ELISA 96-well microplate (GREINER). Then, anti-pralmorelin dihydrochloride rabbit serum was adsorbed on the same microplate; the serum was the first antibody and had been obtained by subcutaneous injection of rabbits with an immunogen having pralmorelin dihydrochloride bound to bovine serum albumin (Sigma) by means of water-soluble carbodiimide (Nakarai Tesk).
Pralmorelin dihydrochloride contained in a sample was allowed to compete for pralmorelin labeled β-galactosidase that had been crosslinked with crosslinker N-(m-maleimidebenzoyloxy)succinimide (Nakaral Tesk); then, the β-galactosidase bound to the first antibody was reacted with 4-methylumbelliferyl-β-D-galactopyranoside; thereafter, the enzymatic activity of the β-galactosidase bound to the first antibody was measured at an excitation wavelength of 370 nm and a fluorescence wavelength of 460 nm.
From the measured values for the enzymatic activity of the β-galactosidase, the maximum plasma drug concentration (Cmax) of pralmorelin dihydrochloride, the area under the plasma drug concentration vs time curve (AUC) and the bioavailability (the ratio of AUC obtained by intranasal administration to AUC obtained by intravenous administration) were obtained.
Two kinds of preparation for intranasal administration, one consisting of pralmorelin dihydrochloride and distilled water and the other further containing D-mannitol at varying concentrations, were evaluated for their effects on in vivo absorption of pralmorelin dihydrochloride. With four kinds of solvent, distilled water, 2.5 w/v % D-mannitol solution (osmolarity ratio, 0.5), 5 w/v % D-mannitol solution (osmolarity ratio, 1), 10 w/v % D-mannitol solution (osmolarity ratio, 2), solutions of 0.4 w/v % pralmorelin dihydrochloride were prepared and administered in an amount of 50 μg/kg to male rats as in Example 1.
With an aqueous solution of 0.005 w/v % benzalkonium chloride used as a base, pralmorelin preparations for intranasal administration were made at three concentrations, 0.1 w/v %, 0.3 w/v % and 1.0 w/v %, of pralmorelin dihydrochloride. Each preparation was dripped into the right nostril of 5-week old male Crj:CD (SD) rats (N=3). The dose of administration was 0.1 mg/kg, 0.3 mg/kg and 1.0 mg/kg for the respective preparations, which were all administered in a volume of 0.1 ml/kg.

[3] abbreviates: inhaled or intranasal, 50 ug/kg, intranasal 50 μg/kg, 0.1 w/v % solution in 5 w/v % D-mannitol.
The mark [4] stands for this setting: inhaled or intranasal, 50 ug/kg, intranasal 50 μg/kg, 0.1 w/v % solution in physiological saline.
[5] abbreviates: inhaled or intranasal, 50 ug/kg, intranasal 50 μg/kg, 0.4 w/v % solution in 2.5 w/v % D-mannitol (osmolarity ratio 0.5).
The mark [6] stands for this setting: inhaled or intranasal, 50 ug/kg, intranasal 50 μg/kg, 0.4 w/v % solution in 5 w/v % D-mannitol (osmolarity ratio 1).
The mark [7] stands for this setting: inhaled or intranasal, 50 ug/kg, intranasal 50 μg/kg, 0.4 w/v % solution in 10 w/v % D-mannitol (osmolarity ratio 2).
[8] abbreviates: inhaled or intranasal, 50 ug/kg, intranasal 50 μg/kg, 0.4 w/v % solution in distilled water.
The mark [9] stands for this setting: inhaled or intranasal, 0.1 mg/kg, intranasal 0.1 mg/kg, 0.1 w/v % in aqueous 0.005 w/v % benzalkonium chloride, 0.1 ml/kg.
Setting [10] is: inhaled or intranasal, 0.3 mg/kg, intranasal 0.3 mg/kg, 0.3 w/v % in aqueous 0.005 w/v % benzalkonium chloride, 0.1 ml/kg.
Setting [11] is: inhaled or intranasal, 1 mg/kg, intranasal 1.0 mg/kg, 1.0 w/v % in aqueous 0.005 w/v % benzalkonium chloride, 0.1 ml/kg.

Where a SMILES comes first, the peptide text is derived from it. [ ]: non-standard residue; d: D form. d2Nal = N[C@H](Cc1ccc2ccccc2c1)C(=O)O

`C[C@H](NC(=O)[C@@H](Cc1ccc2ccccc2c1)NC(=O)[C@@H](C)N)C(=O)N[C@@H](Cc1c[nH]c2ccccc12)C(=O)N[C@H](Cc1ccccc1)C(=O)N[C@@H](CCCCN)C(N)=O.Cl.Cl` [pralmorelin dihydrochloride, D-alanyl-3-(naphthalen-2-yl)-D-alanyl-L-alanyl-L-tryptophyl-D-phenylalanyl-L-lysinamide dihydrochloride] (H-[dA][d2Nal]AW[dF]K-NH2): the “saturated solubility in physiological saline” value in data set [1] worked out at 0.15 w/v %. In addition, the Tmax (commonly the time from dosing to the highest level) in data set [2] (inhaled or intranasal, intranasal 0.1 mg/kg, 0.1 w/v % in aqueous 0.005 w/v % benzalkonium chloride, 0.1 ml/kg) was determined as 10.2 min; in data set [2] (inhaled or intranasal, intranasal 0.3 mg/kg, 0.3 w/v % in aqueous 0.005 w/v % benzalkonium chloride, 0.1 ml/kg) it was 10.2 min; in data set [2] (inhaled or intranasal, intranasal 1.0 mg/kg, 1.0 w/v % in aqueous 0.005 w/v % benzalkonium chloride, 0.1 ml/kg) it was 10.2 min. In addition, the exposure (AUC) (commonly concentration integrated over time) in data set [2] (setting [3]) stood at 2.71 ng·h/mL; in data set [2] (setting [4]) it was 1.98 ng·h/mL; in data set [2] (setting [9]), 14.5 ng·h/mL; in data set [2] (setting [10]) it was 48.1 ng·h/mL; in data set [2] (setting [11]) it was 250 ng·h/mL. Besides, the Cmax (in general, the peak of the concentration-time curve) in data set [2] (setting [3]) was 2.37 ng/mL; in data set [2] (setting [4]), 0.7 ng/mL; in data set [2] (setting [5]) it was 55.8 ng/mL; in data set [2] (setting [6]) it was 49.2 ng/mL; in data set [2] (setting [7]), 21.7 ng/mL; in data set [2] (setting [8]), 60.7 ng/mL. Moreover, the Cmax was found to be 18 ng/mL in data set [2] (setting [9]), 72.8 ng/mL in data set [2] (setting [10]) and 502 ng/mL in data set [2] (setting [11]). The bioavailability (commonly dose-corrected exposure relative to a reference, in per cent) in data set [2] (setting [5]) stood at 22.1%; in data set [2] (setting [6]), 19%; in data set [2] (setting [7]) it was 9%; in data set [2] (setting [8]), 26.2%; in data set [2] (other: intranasal, 50 ug/kg, intranasal 50 μg/kg, 0.1 w/v % solution in 5 w/v % D-mannitol, AUC intranasal / AUC intravenous), 4.22%; in data set [2] (other: intranasal, 50 ug/kg, intranasal 50 μg/kg, 0.1 w/v % solution in physiological saline, AUC intranasal / AUC intravenous), 3.08%.
